In the supplement of paper PMC10307832:

Tests used:
Experiment in all cases: relative viability (nuclei count vs DMSO), 5 days (fraction); higher = more cells survive
RERF-LC-KJ = tested on: RERF-LC-KJ
How it was run: (§1)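 Relative viability is defined as nuclei in treated wells over nuclei in vehicle wells. Duplicate plates were run and medians reported. Lung cancer cell lines in 1536-well plates were dosed by pin tool one day after seeding, with one drug or with a fixed anchor-drug dose plus five library-drug doses (not always all listed) in √10 steps, and nuclei were counted after 5 days.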

HCC-78 = tested on: HCC-78
How it was run: as §1

NCI-H2405 = tested on: NCI-H2405
How it was run: as §1

EMC-BAC-2 = tested on: EMC-BAC-2
How it was run: as §1

EKVX = tested on: EKVX
How it was run: as §1

ChaGo-K-1 = tested on: ChaGo-K-1
How it was run: as §1

NCI-H23 = tested on: NCI-H23
How it was run: as §1

SW 1573 = tested on: SW 1573
How it was run: as §1

NCI-H1975 = tested on: NCI-H1975
How it was run: as §1

NCI-H1563 = tested on: NCI-H1563
How it was run: as §1

LCLC-103H = tested on: LCLC-103H
How it was run: as §1

LU99A = tested on: LU99A
How it was run: as §1

NCI-H2126 = tested on: NCI-H2126
How it was run: as §1

LK-2 = tested on: LK-2
How it was run: as §1

NCI-H322M = tested on: NCI-H322M
How it was run: as §1

PC-14 = tested on: PC-14
How it was run: as §1

EPLC-272H = tested on: EPLC-272H
How it was run: as §1

LXF-289 = tested on: LXF-289
How it was run: as §1

SK-LU-1 = tested on: SK-LU-1
How it was run: as §1

NCI-H1666 = tested on: NCI-H1666
How it was run: as §1

HCC-827 = tested on: HCC-827
How it was run: as §1

O=c1cc(N2CCOCC2)oc2c(-c3cccc4c3sc3ccccc34)cccc12 + CS(=O)(=O)N1CCN(Cc2cc3nc(-c4cccc5[nH]ncc45)nc(N4CCOCC4)c3s2)CC1 [Pictilisib] (partner 1 µM)
relative viability (RERF-LC-KJ; first compound 0.01 µM): 0.509 | relative viability (RERF-LC-KJ; first compound 0.03162 µM): 0.507 | relative viability (RERF-LC-KJ; first compound 0.1 µM): 0.595 | relative viability (RERF-LC-KJ; first compound 0.3162 µM): 0.664 | relative viability (RERF-LC-KJ; first compound 1 µM): 0.514 | relative viability (HCC-78; first compound 0.01 µM): 0.209 | relative viability (HCC-78; first compound 0.03162 µM): 0.204 | relative viability (HCC-78; first compound 0.1 µM): 0.178 | relative viability (HCC-78; first compound 0.3162 µM): 0.242 | relative viability (HCC-78; first compound 1 µM): 0.191 | relative viability (NCI-H2405; first compound 0.01 µM): 0.397 | relative viability (NCI-H2405; first compound 0.03162 µM): 0.513 | relative viability (NCI-H2405; first compound 0.1 µM): 0.443 | relative viability (NCI-H2405; first compound 0.3162 µM): 0.533 | relative viability (NCI-H2405; first compound 1 µM): 0.443 | relative viability (EMC-BAC-2; first compound 0.01 µM): 0.372 | relative viability (EMC-BAC-2; first compound 0.03162 µM): 0.518 | relative viability (EMC-BAC-2; first compound 0.1 µM): 0.559 | relative viability (EMC-BAC-2; first compound 0.3162 µM): 0.574 | relative viability (EMC-BAC-2; first compound 1 µM): 0.517 | relative viability (EKVX; first compound 0.01 µM): 0.418 | relative viability (EKVX; first compound 0.03162 µM): 0.496 | relative viability (EKVX; first compound 0.1 µM): 0.507 | relative viability (EKVX; first compound 0.3162 µM): 0.439 | relative viability (EKVX; first compound 1 µM): 0.431 | relative viability (ChaGo-K-1; first compound 0.01 µM): 0.648 | relative viability (ChaGo-K-1; first compound 0.03162 µM): 0.791 | relative viability (ChaGo-K-1; first compound 0.1 µM): 0.448 | relative viability (ChaGo-K-1; first compound 0.3162 µM): 0.901 | relative viability (ChaGo-K-1; first compound 1 µM): 0.663 | relative viability (NCI-H23; first compound 0.01 µM): 0.529 | relative viability (NCI-H23; first compound 0.03162 µM): 0.422 | relative viability (NCI-H23; first compound 0.3162 µM): 0.513 | relative viability (NCI-H23; first compound 1 µM): 0.442 | relative viability (SW 1573; first compound 0.01 µM): 0.549 | relative viability (SW 1573; first compound 0.03162 µM): 0.489 | relative viability (SW 1573; first compound 0.1 µM): 0.48 | relative viability (SW 1573; first compound 0.3162 µM): 0.452 | relative viability (SW 1573; first compound 1 µM): 0.471 | relative viability (NCI-H1975; first compound 0.01 µM): 0.272 | relative viability (NCI-H1975; first compound 0.03162 µM): 0.307 | relative viability (NCI-H1975; first compound 0.1 µM): 0.287 | relative viability (NCI-H1975; first compound 0.3162 µM): 0.305 | relative viability (NCI-H1975; first compound 1 µM): 0.28 | relative viability (NCI-H1563; first compound 0.01 µM): 0.626 | relative viability (NCI-H1563; first compound 0.03162 µM): 0.634 | relative viability (NCI-H1563; first compound 0.1 µM): 0.659 | relative viability (NCI-H1563; first compound 0.3162 µM): 0.57 | relative viability (NCI-H1563; first compound 1 µM): 0.559 | relative viability (LCLC-103H; first compound 0.01 µM): 0.64 | relative viability (LCLC-103H; first compound 0.03162 µM): 0.664 | relative viability (LCLC-103H; first compound 0.1 µM): 0.649 | relative viability (LCLC-103H; first compound 0.3162 µM): 0.627 | relative viability (LCLC-103H; first compound 1 µM): 0.577 | relative viability (LU99A; first compound 0.01 µM): 0.384 | relative viability (LU99A; first compound 0.03162 µM): 0.3 | relative viability (LU99A; first compound 0.1 µM): 0.333 | relative viability (LU99A; first compound 0.3162 µM): 0.367 | relative viability (LU99A; first compound 1 µM): 0.343 | relative viability (NCI-H2126; first compound 0.01 µM): 0.471 | relative viability (NCI-H2126; first compound 0.03162 µM): 0.449 | relative viability (NCI-H2126; first compound 0.1 µM): 0.529 | relative viability (NCI-H2126; first compound 0.3162 µM): 0.517 | relative viability (NCI-H2126; first compound 1 µM): 0.479 | relative viability (LK-2; first compound 0.01 µM): 0.676 | relative viability (LK-2; first compound 0.03162 µM): 0.562 | relative viability (LK-2; first compound 0.1 µM): 0.615 | relative viability (LK-2; first compound 0.3162 µM): 0.578 | relative viability (LK-2; first compound 1 µM): 0.64 | relative viability (NCI-H322M; first compound 0.01 µM): 0.578 | relative viability (NCI-H322M; first compound 0.03162 µM): 0.525 | relative viability (NCI-H322M; first compound 0.3162 µM): 0.471 | relative viability (NCI-H322M; first compound 1 µM): 0.507 | relative viability (PC-14; first compound 0.01 µM): 0.555 | relative viability (PC-14; first compound 0.03162 µM): 0.612 | relative viability (PC-14; first compound 0.1 µM): 0.553 | relative viability (PC-14; first compound 0.3162 µM): 0.638 | relative viability (PC-14; first compound 1 µM): 0.589 | relative viability (EPLC-272H; first compound 0.01 µM): 0.108 | relative viability (EPLC-272H; first compound 0.03162 µM): 0.242 | relative viability (EPLC-272H; first compound 0.3162 µM): 0.374 | relative viability (EPLC-272H; first compound 1 µM): 0.31 | relative viability (LXF-289; first compound 0.01 µM): 0.877 | relative viability (LXF-289; first compound 0.03162 µM): 0.815 | relative viability (LXF-289; first compound 0.1 µM): 0.881 | relative viability (LXF-289; first compound 0.3162 µM): 0.754 | relative viability (LXF-289; first compound 1 µM): 0.843 | relative viability (SK-LU-1; first compound 0.01 µM): 0.609 | relative viability (SK-LU-1; first compound 0.03162 µM): 0.604 | relative viability (SK-LU-1; first compound 0.1 µM): 0.527 | relative viability (SK-LU-1; first compound 0.3162 µM): 0.481 | relative viability (SK-LU-1; first compound 1 µM): 0.587 | relative viability (NCI-H1666; first compound 0.01 µM): 0.443 | relative viability (NCI-H1666; first compound 0.03162 µM): 0.483 | relative viability (NCI-H1666; first compound 0.1 µM): 0.504 | relative viability (NCI-H1666; first compound 0.3162 µM): 0.412 | relative viability (NCI-H1666; first compound 1 µM): 0.339 | relative viability (HCC-827; first compound 0.01 µM): 1.04 | relative viability (HCC-827; first compound 0.03162 µM): 0.809 | relative viability (HCC-827; first compound 0.1 µM): 1.05 | relative viability (HCC-827; first compound 0.3162 µM): 1.01 | relative viability (HCC-827; first compound 1 µM): 0.997
